According to patent US20200017495A1, “NOVEL HETEROCYCLIC COMPOUNDS AND THEIR USE IN PREVENTING OR TREATING BACTERIAL INFECTIONS” (priority 2017, published 2020):
Where two headings read alike, the source gives them in different places.

Legend:
OXA-48 = OXA-48 (Klebsiella pneumoniae, UniProt Q6XEC0); assay: β-lactamase inhibitory activity, IC50 (nitrocefin hydrolysis); format: biochemical
Protocol: (§3) Enzymes were cloned in E. coli expression vector, expressed and purified in house using classical procedures. […] After 30 min of pre-incubation at room temperature, 15 μL of NCF (100 μM final) were finally added in each well. […] Enzyme activity was obtained by subtracting the background from the final signal, and was converted to enzyme inhibition using non inhibited wells. IC50 curves were fitted to a classical Langmuir equilibrium model with Hill slope using XLFIT (IDBS).

[1] = system: Proteus mirabilis (PMI) isolates; assay: microbe, parasite or virus in culture; format: cell-based; conditions: Proteus mirabilis, compound alone, read-out: MIC
Protocol: (§1) Method 2: MIC of Compounds Alone and Combined with Antibacterials Against Bacterial Isolates
(§2) Compounds of the present invention were assessed against genotyped bacterial strains (Table 3, 4) alone or in combination with an antibacterial (Table 2). […] Log phase bacterial suspensions were adjusted to a final density of 5.10^5 CFU/mL in cation-adjusted Mueller-Hinton broth (ca-MHB; Becton-Dickinson and Company) and added to each well (98 μL). Microplates were incubated for 16-20 h at 35° C. in ambient air. The MIC of the compounds was defined as the lowest concentration of said compounds that prevented bacterial growth as read by visual inspection. The MIC of ATB at each compound concentration was defined as the lowest concentration of ATB that prevented bacterial growth as read by visual inspection.

OXA-40 = OXA-40 (Acinetobacter baumannii, UniProt Q8RLA6); assay: β-lactamase inhibitory activity, IC50 (nitrocefin hydrolysis); format: biochemical
Protocol: as §3

PAE ampC = PAE ampC (Pseudomonas aeruginosa, UniProt P24735); assay: as above; format: biochemical, P. aeruginosa
Protocol: as §3

CTX-M-15 = CTX-M-15 (Escherichia coli, UniProt Q9EXV5); assay: as above; format: biochemical
Protocol: (§4) Method 1: β-Lactamase Inhibitory Activity, Determination of IC50 (Table 1)
as §3

OXA-15 = OXA-15 (Pseudomonas aeruginosa, UniProt Q51574); assay: as above; format: biochemical
Protocol: as §3

OXA-1 = OXA-1 (Escherichia coli, UniProt P13661); assay: as above; format: biochemical
Protocol: as §3

P99 ampC = P99 ampC (Enterobacter cloacae, UniProt P05364); assay: as above; format: biochemical
Protocol: as §4, §3

SHV-1 = SHV-1 (Klebsiella pneumoniae, UniProt P0AD64); assay: as above; format: biochemical
Protocol: as §3

[2] = system: Providencia stuartii (PST) isolates; assay: MIC of compounds alone and combined with antibacterials, broth microdilution (CLSI); format: cell-based; conditions: Providencia stuartii; strain PST UFR235; compound alone; read-out: MIC
Protocol: as §1
Compounds of the present invention were assessed against genotyped bacterial strains (Table 3, 4) alone or in combination with an antibacterial (Table 2). […]. Briefly, compounds alone according to the invention were prepared in DMSO and spotted (2 μL each) on sterile polystyrene plates (Corning, 3788). Combinations of compounds and antibiotics dilutions were prepared in DMSO and spotted (1 μL each) on sterile polystyrene plates (Corning, 3788). Log phase bacterial suspensions were adjusted to a final density of 5.10^5 CFU/mL in cation-adjusted Mueller-Hinton broth (ca-MHB; Becton-Dickinson and Company) and added to each well (98 μL). Microplates were incubated for 16-20 h at 35° C. in ambient air. The MIC of the compounds was defined as the lowest concentration of said compounds that prevented bacterial growth as read by visual inspection. The MIC of ATB at each compound concentration was defined as the lowest concentration of ATB that prevented bacterial growth as read by visual inspection.

[3] = system: Enterobacter aerogenes (EAE) isolates; assay: as above; format: cell-based; conditions: Klebsiella aerogenes
Protocol: as §1, §2

[4] = system: Escherichia coli (ECO) isolates; assay: as above; format: cell-based; conditions: Escherichia coli, compound alone, read-out: MIC
Protocol: as §1, §2

[5] = system: Citrobacter freundii (CFR) isolates; assay: as above; format: cell-based; conditions: Citrobacter freundii, strain CFR UFR250; compound alone
Protocol: as §1, §2

[6] = system: Klebsiella pneumoniae (KPN) isolates; assay: as above; format: cell-based; conditions: Klebsiella pneumoniae, compound alone, read-out: MIC
Protocol: as §1, §2

[7] = system: Serratia marcescens (SMA) isolates; assay: as above; format: cell-based; conditions: Serratia marcescens; strain SMA UFR143; compound alone; read-out: MIC
Protocol: as §1, §2

TEM-1 = TEM-1 (Escherichia coli, UniProt P62593); assay: β-lactamase inhibitory activity, IC50 (nitrocefin hydrolysis); format: biochemical
Protocol: as §3

SAU PC1 = SAU PC1 (Staphylococcus aureus, UniProt P00807); assay: as above; format: biochemical, S. aureus; conditions: SAU PC1; 30 min pre-incubation, nitrocefin 100 μM; read-out: IC50
Protocol: as §4, §3

KPC-2 = KPC-2 (Klebsiella pneumoniae, UniProt Q9F663); assay: as above; format: biochemical
Protocol: as §4, §3

OXA-11 = OXA-11 (Pseudomonas aeruginosa, UniProt Q06778); assay: as above; format: biochemical
Protocol: as §3

SHV-12 = SHV-12 (Klebsiella pneumoniae, UniProt P0AD64, E235K/G234S/L31Q); assay: as above; format: biochemical; conditions: SHV-12; 30 min pre-incubation, nitrocefin 100 μM; read-out: IC50
Protocol: as §4, §3

OXA-58 = OXA-58 (Acinetobacter baumannii, UniProt Q2TR58); assay: as above; format: biochemical
Protocol: as §3

OXA-23 = OXA-23 (Acinetobacter baumannii, UniProt Q9L4P2); assay: as above; format: biochemical
OXA-23, sequence (Q9L4P2 18-273): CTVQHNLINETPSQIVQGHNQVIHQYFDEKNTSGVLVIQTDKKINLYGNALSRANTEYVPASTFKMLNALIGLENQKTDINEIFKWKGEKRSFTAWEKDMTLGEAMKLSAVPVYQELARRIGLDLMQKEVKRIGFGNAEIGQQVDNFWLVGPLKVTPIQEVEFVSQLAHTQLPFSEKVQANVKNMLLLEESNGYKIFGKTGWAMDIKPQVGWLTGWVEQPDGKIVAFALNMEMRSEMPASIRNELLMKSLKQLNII
Protocol: as §3

SHV-1, sequence (P0AD64 22-286): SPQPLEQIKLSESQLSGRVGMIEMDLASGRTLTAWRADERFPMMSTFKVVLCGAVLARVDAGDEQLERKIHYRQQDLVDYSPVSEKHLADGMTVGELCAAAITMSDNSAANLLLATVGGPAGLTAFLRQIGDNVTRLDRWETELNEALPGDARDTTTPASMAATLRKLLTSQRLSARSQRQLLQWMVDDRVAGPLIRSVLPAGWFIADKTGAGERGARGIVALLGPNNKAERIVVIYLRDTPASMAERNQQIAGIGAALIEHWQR
TEM-1, sequence (P62593 24-286 limits assumed): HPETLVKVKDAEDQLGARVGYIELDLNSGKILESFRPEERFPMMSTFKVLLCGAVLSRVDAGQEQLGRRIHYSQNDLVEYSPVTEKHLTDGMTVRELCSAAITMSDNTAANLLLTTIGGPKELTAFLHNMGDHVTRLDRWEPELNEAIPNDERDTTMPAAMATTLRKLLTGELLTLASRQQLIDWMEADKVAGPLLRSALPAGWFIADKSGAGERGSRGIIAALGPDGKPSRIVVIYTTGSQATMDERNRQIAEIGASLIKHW
SAU PC1, sequence (P00807 25-281): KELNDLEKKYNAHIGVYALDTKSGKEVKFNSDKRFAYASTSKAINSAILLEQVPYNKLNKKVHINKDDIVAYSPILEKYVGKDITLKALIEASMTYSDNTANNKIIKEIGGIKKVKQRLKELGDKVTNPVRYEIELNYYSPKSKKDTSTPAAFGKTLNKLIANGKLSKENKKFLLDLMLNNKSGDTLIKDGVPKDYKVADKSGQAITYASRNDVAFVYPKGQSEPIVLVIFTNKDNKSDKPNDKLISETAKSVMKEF
KPC-2, sequence (Q9F663 25-293 limits assumed): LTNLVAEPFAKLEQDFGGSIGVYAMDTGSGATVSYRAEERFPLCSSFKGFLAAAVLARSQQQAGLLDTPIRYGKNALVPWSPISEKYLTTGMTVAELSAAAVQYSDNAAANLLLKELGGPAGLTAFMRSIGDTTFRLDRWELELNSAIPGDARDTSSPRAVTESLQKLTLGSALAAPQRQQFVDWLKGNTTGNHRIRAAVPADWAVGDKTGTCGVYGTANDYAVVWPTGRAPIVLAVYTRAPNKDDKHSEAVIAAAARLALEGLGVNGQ
P99 ampC, sequence (P05364 21-381): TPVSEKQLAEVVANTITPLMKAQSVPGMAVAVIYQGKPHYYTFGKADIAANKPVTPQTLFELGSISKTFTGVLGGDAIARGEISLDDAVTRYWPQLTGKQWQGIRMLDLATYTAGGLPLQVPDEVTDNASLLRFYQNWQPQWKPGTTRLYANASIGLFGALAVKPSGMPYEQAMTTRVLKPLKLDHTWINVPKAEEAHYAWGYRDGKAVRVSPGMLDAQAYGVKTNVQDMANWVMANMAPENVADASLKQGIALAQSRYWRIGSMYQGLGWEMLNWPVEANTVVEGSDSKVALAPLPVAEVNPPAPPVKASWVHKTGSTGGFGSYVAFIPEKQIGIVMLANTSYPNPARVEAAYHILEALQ
OXA-15, sequence (Q51574 22-275): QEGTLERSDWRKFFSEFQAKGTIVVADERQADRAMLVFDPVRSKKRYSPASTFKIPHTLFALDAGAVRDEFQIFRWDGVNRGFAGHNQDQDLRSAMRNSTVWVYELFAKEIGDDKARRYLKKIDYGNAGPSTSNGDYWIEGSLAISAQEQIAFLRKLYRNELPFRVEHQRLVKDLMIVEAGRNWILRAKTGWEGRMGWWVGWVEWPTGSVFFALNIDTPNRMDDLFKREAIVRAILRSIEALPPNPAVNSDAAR
OXA-58, sequence (Q2TR58 19-280): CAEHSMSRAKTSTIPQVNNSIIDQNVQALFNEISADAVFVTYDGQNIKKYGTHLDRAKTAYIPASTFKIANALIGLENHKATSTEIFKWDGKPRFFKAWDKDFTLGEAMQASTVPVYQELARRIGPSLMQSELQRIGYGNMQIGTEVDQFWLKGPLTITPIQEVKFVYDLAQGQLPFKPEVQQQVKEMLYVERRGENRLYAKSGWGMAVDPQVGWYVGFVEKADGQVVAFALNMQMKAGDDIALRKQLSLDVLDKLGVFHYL
PAE ampC, sequence (P24735 27-397): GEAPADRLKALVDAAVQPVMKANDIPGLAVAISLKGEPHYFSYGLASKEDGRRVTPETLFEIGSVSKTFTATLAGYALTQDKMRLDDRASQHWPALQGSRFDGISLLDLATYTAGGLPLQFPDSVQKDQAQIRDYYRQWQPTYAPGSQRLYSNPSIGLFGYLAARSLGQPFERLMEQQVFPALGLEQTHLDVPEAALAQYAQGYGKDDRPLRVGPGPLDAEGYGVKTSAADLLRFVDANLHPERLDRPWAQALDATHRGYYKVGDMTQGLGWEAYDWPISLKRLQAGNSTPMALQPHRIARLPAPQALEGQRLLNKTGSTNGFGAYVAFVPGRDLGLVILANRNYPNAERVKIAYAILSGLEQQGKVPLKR
CTX-M-15, sequence (Q9EXV5 entry or part of it): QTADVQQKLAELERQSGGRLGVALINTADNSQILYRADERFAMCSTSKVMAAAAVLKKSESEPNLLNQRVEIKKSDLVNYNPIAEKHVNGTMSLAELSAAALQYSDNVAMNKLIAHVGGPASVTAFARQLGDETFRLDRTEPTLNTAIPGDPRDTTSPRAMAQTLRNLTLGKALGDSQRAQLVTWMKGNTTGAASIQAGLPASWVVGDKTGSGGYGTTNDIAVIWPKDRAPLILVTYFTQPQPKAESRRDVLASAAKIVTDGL
OXA-1, sequence (P13661 26-276): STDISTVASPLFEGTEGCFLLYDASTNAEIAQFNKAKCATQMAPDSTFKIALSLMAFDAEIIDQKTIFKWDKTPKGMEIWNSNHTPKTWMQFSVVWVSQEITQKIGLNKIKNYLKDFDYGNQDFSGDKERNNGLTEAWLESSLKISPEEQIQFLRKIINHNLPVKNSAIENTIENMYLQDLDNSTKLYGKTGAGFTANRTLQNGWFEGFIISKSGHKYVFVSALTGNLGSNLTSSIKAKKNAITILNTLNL
OXA-40, sequence (Q8RLA6 entry or part of it): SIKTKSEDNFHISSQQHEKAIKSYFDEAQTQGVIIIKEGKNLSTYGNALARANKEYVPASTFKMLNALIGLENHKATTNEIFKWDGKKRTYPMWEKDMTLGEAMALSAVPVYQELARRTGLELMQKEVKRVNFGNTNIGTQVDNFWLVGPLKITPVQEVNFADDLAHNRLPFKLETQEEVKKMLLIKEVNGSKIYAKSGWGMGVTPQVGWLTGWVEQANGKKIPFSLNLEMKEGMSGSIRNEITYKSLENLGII
OXA-48, sequence (Q6XEC0 23-265 limits assumed): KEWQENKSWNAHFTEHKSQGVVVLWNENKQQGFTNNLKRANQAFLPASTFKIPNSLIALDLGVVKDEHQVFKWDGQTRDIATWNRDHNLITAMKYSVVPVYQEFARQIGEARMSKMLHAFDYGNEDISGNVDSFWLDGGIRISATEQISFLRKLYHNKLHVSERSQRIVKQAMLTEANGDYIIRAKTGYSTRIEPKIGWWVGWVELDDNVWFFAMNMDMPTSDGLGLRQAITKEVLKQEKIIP
SHV-12, sequence (P0AD64 22-286 L31Q/G234S/E235K): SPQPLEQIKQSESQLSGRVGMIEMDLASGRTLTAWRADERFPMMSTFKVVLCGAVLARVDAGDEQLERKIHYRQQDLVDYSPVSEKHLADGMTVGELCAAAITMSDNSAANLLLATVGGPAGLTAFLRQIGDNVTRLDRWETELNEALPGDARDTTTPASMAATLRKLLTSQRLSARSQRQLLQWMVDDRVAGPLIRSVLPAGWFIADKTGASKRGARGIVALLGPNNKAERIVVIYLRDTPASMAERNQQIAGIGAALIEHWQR
OXA-11, sequence (Q06778 21-266): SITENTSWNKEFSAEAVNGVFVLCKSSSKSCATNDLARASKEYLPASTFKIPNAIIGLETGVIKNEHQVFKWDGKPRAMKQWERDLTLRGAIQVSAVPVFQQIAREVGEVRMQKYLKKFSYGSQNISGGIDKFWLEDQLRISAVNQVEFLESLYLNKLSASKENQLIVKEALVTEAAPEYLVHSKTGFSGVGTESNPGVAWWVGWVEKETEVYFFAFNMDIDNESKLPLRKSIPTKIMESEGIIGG

O=C1N2CC=C(c3cnoc3)C(C2)N1OC(F)(F)C(=O)[O-].[Li+] (stereo not drawn) [AF1, Lithium difluoro-(4-isoxazol-4-yl-7-oxo-1,6-diaza-bicyclo[3.2.1]oct-3-en-6-yloxy)-acetate]
IC50 (OXA-48): 3 nM
MIC ([1]; strain PMI UFR126): 8 µg/mL
MIC ([1]; strain PMI UFR127): 4 µg/mL
IC50 (OXA-40): 120 nM
IC50 (PAE ampC): 4.5 µM
IC50 (CTX-M-15): 2.4 nM
IC50 (OXA-15): 24 nM
IC50 (OXA-1): 1600 nM
IC50 (P99 ampC): 2200 nM
IC50 (SHV-1): 20 nM
MIC [2]: > 32 µg/mL
MIC [3]: 32 µg/mL
MIC ([4]; strain ECO 190317): 2 µg/mL
MIC ([4]; strain ECO 190457): 4 µg/mL
MIC ([4]; strain ECO UFR16): 8 µg/mL
MIC ([4]; strain ECO UFR20): 16 µg/mL
MIC ([4]; strain ECO UFR61O): 8 µg/mL
MIC ([4]; strain ECO UFR209): 8 µg/mL
MIC [5]: > 32 µg/mL
MIC ([6]; strain KPN 110376): > 32 µg/mL
MIC ([6]; strain KPN 131119): > 32 µg/mL
MIC ([6]; strain KPN 190270): > 32 µg/mL
MIC ([6]; strain KPN UFR25): > 32 µg/mL
MIC ([6]; strain KPN UFR66): > 32 µg/mL
MIC ([6]; strain KPN UFR68): > 32 µg/mL
MIC [7]: 32 µg/mL
IC50 (TEM-1): 10 nM
IC50 (SAU PC1): 560 nM
IC50 (KPC-2): 510 nM
IC50 (OXA-11): 250 nM
IC50 (SHV-12): 3.8 nM
IC50 (OXA-58): 15 nM
IC50 (OXA-23): 110 nM
